Source: article PMC2346451 (PLoS ONE, 2008)

Test system: dorsal root ganglion neurons
Assay: Whole-cell patch clamp of acutely isolated dorsal root ganglion neurons
Format: cell-based, rat
Text: Dorsal root ganglion neurons from all spinal levels were removed from postnatal day 12 to 20 Sprague Dawley rats and the nerve roots trimmed. Calcium- and magnesium-free (CMF) Hank's solution contained (in mM): 136.9 sodium chloride, 5.4 potassium chloride, 0.34 dibasic sodium orthophosphate, 0.44 monopotassium phosphate, 5.6 glucose, 5 4-(2-hydroxyethyl)-1-piperazineethanesulfonic acid, 0.005% phenol red, pH 7.4. CMF Hank's was used throughout the isolation and enzymatic treatments. The isolated ganglia were treated for 20 minutes at 37°C with 20 U/ml of papain (Worthington Biochemical, Lakewood, NJ) and 5 mM cysteine. The ganglia were then transferred to CMF Hank's with 3 mg/ml collagenase (type I; Worthington) and 4 mg/ml dispase (neutral type II; Roche Applied Science, Indianapolis, IN) for 20 minutes at 37°C. Individual neurons were dispersed by trituration through a fire-polished glass Pasteur pipette in 3 ml of media containing DMEM, 5% horse serum, 10% fetal bovine serum, 1% penicillin/streptomycin, and 100 ng/ml Nerve Growth Factor (7S subunit; Invitrogen). The neurons were preplated in tissue culture-treated Petri dishes for 1 hour when used for electrophysiology (3 hours for calcium imaging), and then plated on poly-L-lysine (1 mg/ml)-coated glass coverslips. Dorsal root ganglion neurons were allowed to settle for 1–2 hours at 37°C before patching or imaging over the next 6 hours.
Electrophysiological experiments were performed using the whole-cell patch-clamp technique at room temperature. Modified Ringer's solution with low chloride and nominal calcium contained (in mM): 130 sodium hydroxide, 5 potassium chloride, 1 magnesium chloride, 10 sodium 4-(2-hydroxyethyl)-1-piperazineethanesulfonic acid, 10 2-(N-morpholino)ethanesulfonic acid, and 20 glucose (pH 7.4; 310 milli-osmolar). […] 2 mM calcium chloride was included in the external solution where noted. To activate TRPV1, the modified Ringer's solution was made at pH 5 (low pH solution) and the chloride concentration was kept to a minimum to prevent contamination of the TRPV1 currents with acid-activated chloride currents. For recordings from heterologously expressing cells, the internal pipette solution contained (in mM): 125 cesium-Methanesulfonate, 10 cesium (1.2-bis(o-aminophenoxy)ethane-N,N,N',N'-tetraacetic acid, 8 sodium chloride, 4 magnesium adenosine triphosphate, and 10 HEPES (pH 7.2; 290 mOSM; nominal free calcium concentrations). For TRPA1 and dorsal root ganglion recordings, the internal pipette solution contained (in mM): 110 cesium-Methanesulfonate, 0.5 cesium4BAPTA, 8 sodium chloride, 0.2 calcium chloride, 4 magnesium-ATP, 4 sodium-GTP, and 10 4-(2-hydroxyethyl)-1-piperazineethanesulfonic acid (pH 7.2; 290 mOSM; 100 nM free calcium internal). MaxChelator was used to calculate the free calcium concentration (http://www.stanford.edu/cpatton/maxc.html).
Recordings were obtained using an Axopatch 200B amplifier, Digidata 1322A analog-to-digital converter, and pClamp 8.01 software (Molecular Devices, Union City, CA). Data were low-pass filtered at 2 kHz and digitized at 5 kHz. Borosilicate glass pipettes (World Precision Instruments, Sarasota, FL) were typically 3 MΩ pipette resistance after fire polishing. Cell capacitance was measured for each cell, and access resistance compensated to ∼80%. Recordings were begun ∼5 minutes after initial rupture to ensure initial steady state conditions. Current-voltage (I-V) relations were obtained using a ramp protocol. Voltage ramps (400 ms) from −100 to +40 or +100 mV were applied every 1–2 seconds and the holding potential was either −70 mV or 0 mV (see Figure Legends). A 40 ms step was added at the beginning and end of the ramp (i.e. at −100 mV, +40 mV or +100 mV). Liquid junction potentials were not corrected.

CC(C)=CCCC(C)=CC=O [citral, 3,7-dimethyl-2,6-octadienal]
Block of TRPV1-like currents evoked by capsaicin (1 µM capsaicin): 94%
Effect on fast inward current (primarily voltage-gated sodium channels) (1 mM citral): partially blocked
Increase of outward currents (1 mM citral, n = 8): 2.7±0.5 fold
Capsaicin response recovered after citral washout (5 minutes after washout, n = 8): 3±1.5%
Potentiation of TRPV1-like current prior to inhibition (capsaicin activation, n = 17): 1.1±0.03 fold
Initial (constitutive) outward current inhibited (citral at pH 5): 79%
Block of TRPV1-like currents evoked by pH 5 solution (pH 5): 100%
Potentiation of TRPV1-like current prior to inhibition (pH 5 activation, n = 20): 1.5±0.1 fold
